Experiments:
Test in all cases: relative viability (nuclei count vs DMSO), 5 days (fraction); higher = more cells survive
IDH-C35 + Trametinib = compound: Cc1ccccc1C(C(=O)NC1CCCCC1)N(C(=O)Cn1ccnc1C)c1cccc(F)c1 [IDH-C35] + CC(=O)Nc1cccc(-n2c(=O)n(C3CC3)c(=O)c3c(Nc4ccc(I)cc4F)n(C)c(=O)c(C)c32)c1 [Trametinib] (partner 0.02 µM)
In short: (§1)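 For relative viability, nuclei counts in treated wells were divided by those in vehicle wells. Lung cancer cell lines had been pin-tool dosed in 1536-well plates the day after seeding and cultured for 5 days, then fixed and stained in one step (final 0.05% Triton X-100, 1% formaldehyde, 1 ug/ml Hoechst) and imaged at 4×. Doses were one drug alone or a fixed anchor-drug dose plus five library-drug doses (not always all listed) in √10 steps, and values are duplicate-plate medians.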

IDH-C35 + Crizotinib = compound: Cc1ccccc1C(C(=O)NC1CCCCC1)N(C(=O)Cn1ccnc1C)c1cccc(F)c1 [IDH-C35] + C[C@@H](Oc1cc(-c2cnn(C3CCNCC3)c2)cnc1N)c1c(Cl)ccc(F)c1Cl [Crizotinib] (partner 1 µM)
In short: as §1

[1] = compound: CC1=C(C(=NN1)C)CC2=C(C3=C(S2)N(C(=O)N(C3=O)C)CC(C)C)C(=O)N4C[C@@H](CO4)O + O=C(c1cc(Cc2n[nH]c(=O)c3ccccc23)ccc1F)N1CCN(C(=O)C2CC2)CC1 [Olaparib] (partner 8 µM)
In short: as §1

IDH-C35 + OSI-027 = compound: Cc1ccccc1C(C(=O)NC1CCCCC1)N(C(=O)Cn1ccnc1C)c1cccc(F)c1 [IDH-C35] + COc1cccc2cc(-c3nc([C@H]4CC[C@H](C(=O)O)CC4)n4ncnc(N)c34)[nH]c12 [OSI-027] (partner 0.5 µM)
In short: as §1

| Cell Line | relative viability (IDH-C35 + Trametinib; first compound 0.08 µM) | relative viability (IDH-C35 + Trametinib; first compound 0.253 µM) | relative viability (IDH-C35 + Trametinib; first compound 0.8 µM) | relative viability (IDH-C35 + Trametinib; first compound 2.53 µM) | relative viability (IDH-C35 + Trametinib; first compound 8 µM) | relative viability (IDH-C35 + Crizotinib; first compound 0.08 µM) | relative viability (IDH-C35 + Crizotinib; first compound 0.253 µM) | relative viability (IDH-C35 + Crizotinib; first compound 0.8 µM) | relative viability (IDH-C35 + Crizotinib; first compound 2.53 µM) | relative viability (IDH-C35 + Crizotinib; first compound 8 µM) | relative viability ([1]; first compound 0.0025 µM) | relative viability ([1]; first compound 0.007906 µM) | relative viability ([1]; first compound 0.025 µM) | relative viability ([1]; first compound 0.07906 µM) | relative viability ([1]; first compound 0.25 µM) | relative viability (IDH-C35 + OSI-027; first compound 0.08 µM) | relative viability (IDH-C35 + OSI-027; first compound 0.253 µM) | relative viability (IDH-C35 + OSI-027; first compound 0.8 µM) | relative viability (IDH-C35 + OSI-027; first compound 2.53 µM) | relative viability (IDH-C35 + OSI-027; first compound 8 µM) |
| --- | --- | --- | --- | --- | --- | --- | --- | --- | --- | --- | --- | --- | --- | --- | --- | --- | --- | --- | --- | --- |
| LK-2 | 0.719 | 0.762 | 0.735 | 0.779 | 0.745 | 0.223 | 0.23 | 0.215 | 0.209 | 0.233 | 0.743 | 0.608 | 0.504 | 0.556 | 0.6 | 0.213 | 0.226 | 0.188 | 0.24 | 0.236 |
| NCI-H2126 | 0.568 | 0.563 | 0.564 | 0.519 | 0.537 | 0.996 | 1.02 | 1 | 0.981 | 0.992 | 0.962 | 0.951 | 0.874 | 0.865 | 0.914 | 0.767 | 0.731 | 0.68 | 0.651 | 0.677 |
| NCI-H3122 | 0.22 | 0.249 | 0.21 | 0.236 | 0.212 | 0.292 | 0.299 | 0.295 | 0.252 | 0.27 | 0.62 | 0.659 | 0.64 | 0.618 | 0.628 | 1.03 | 1.04 | 0.929 | 0.917 | 0.948 |
| NCI-H1975 | 0.384 | 0.363 | 0.323 | 0.345 | 0.32 | 1 | 0.967 | 0.93 | 0.924 | 0.876 | 0.814 | 0.906 | 0.839 | 0.77 | 0.875 | 0.64 | 0.71 | 0.778 | 0.741 | 0.763 |
| NCI-H1944 | 0.392 | 0.421 | 0.42 | 0.332 | 0.393 | 1.12 | 1.18 | 0.979 | 1.04 | 1.22 | 0.455 | 0.427 | 0.423 | 0.373 | 0.423 | 0.418 | 0.415 | 0.413 | 0.442 | 0.392 |
| LU99A | 0.527 | 0.643 | 0.56 | 0.527 | 0.524 | 0.585 | 0.612 | 0.587 | 0.578 | 0.539 | 0.224 | 0.262 | 0.246 | 0.193 | 0.229 | 0.335 | 0.329 | 0.276 | 0.293 | 0.286 |
| SW 1573 | 0.491 | 0.793 | 0.531 | 0.571 | 0.518 | 0.759 | 0.889 | 0.798 | 1.01 | 0.713 | 0.462 | 0.515 | 0.521 | 0.468 | 0.492 | 0.779 | 0.798 | 0.648 | 0.763 | 0.753 |
| NCI-H2347 | 0.342 | 0.281 | 0.323 | 0.28 | 0.283 | 0.71 | 0.695 | 0.713 | 0.762 | 0.619 | 0.574 | 0.624 | 0.468 | 0.508 | 0.587 | 0.467 | 0.48 | 0.477 | 0.324 | 0.369 |
| NCI-H2009 | 0.29 | 0.308 | 0.314 | 0.34 | 0.288 | 0.992 | 1 | 1.08 | 0.971 | 0.995 | 0.704 | 0.682 | 0.649 | 0.711 | 0.721 | 0.654 | 0.643 | 0.685 | 0.668 | 0.569 |
| NCI-H1299 |  |  |  |  |  | 0.97 | 0.953 | 0.981 | 0.923 | 0.93 | 0.986 | 0.991 | 0.975 | 1.01 | 0.988 |  |  |  |  |  |
| ABC-1 |  |  |  |  |  | 0.876 | 1.21 | 1.3 | 1.15 | 1.09 | 0.487 | 0.519 |  | 0.485 | 0.517 | 0.528 | 0.516 | 0.582 | 0.531 | 0.441 |
| NCI-H1793 | 0.42 | 0.45 | 0.374 | 0.472 | 0.401 |  |  |  |  |  | 0.896 | 0.975 | 0.829 | 0.768 | 0.719 | 0.225 | 0.256 | 0.279 |  | 0.262 |
| NCI-H1648 |  | 0.566 | 0.465 | 0.479 | 0.584 |  |  |  |  |  | 0.878 | 0.724 | 0.63 | 0.782 | 0.887 | 0.289 | 0.234 | 0.274 | 0.275 | 0.257 |
| NCI-H1563 |  |  |  |  |  | 0.874 | 0.907 | 0.861 | 0.92 | 0.854 |  |  |  |  |  | 0.769 | 0.721 | 0.788 | 0.768 | 0.727 |
| A549 |  |  |  |  |  | 0.819 | 0.794 | 0.814 | 0.669 | 0.744 | 0.322 | 0.391 | 0.355 | 0.358 | 0.4 |  |  |  |  |  |
| NCI-H522 | 0.767 | 0.8 | 0.643 | 0.796 | 0.695 |  |  |  |  |  | 0.793 | 0.646 | 0.53 | 0.4 | 0.348 | 0.784 | 0.658 | 0.74 | 0.669 | 0.674 |
| NCI-H1623 |  |  |  |  |  |  |  |  |  |  |  |  |  |  |  | 0.45 | 0.421 | 0.394 | 0.435 | 0.423 |
| SW 900 | 0.855 | 0.773 |  | 0.91 | 0.767 |  |  |  |  |  | 0.805 | 1.09 | 0.846 | 1 | 0.893 | 0.496 | 0.584 | 0.601 | 0.353 | 0.625 |
| NCI-H1395 | 1.12 | 1.05 | 1.05 | 0.903 | 0.919 |  |  |  |  |  | 0.552 | 0.408 | 0.38 | 0.342 | 0.403 | 0.66 | 0.701 | 0.709 | 0.618 | 0.579 |
| IA-LM |  |  |  |  |  | 0.94 | 0.874 | 0.741 | 0.755 | 0.704 | 0.907 | 1.03 | 0.807 | 0.757 | 0.865 |  |  |  |  |  |
| EBC-1 |  |  |  |  |  | 0.181 | 0.187 | 0.168 | 0.194 | 0.161 | 0.738 | 0.705 | 0.718 | 0.836 | 0.748 |  |  |  |  |  |
